Measured values published in US9034854B2, “Pharmaceutical composition comprising estetrol derivatives for use in cancer therapy” (priority 2002, dated 2015).
One block for each compound: values may come before it.

Legend:
[1] = system: AP-1 site in the presence of ERβ; settings: cited from earlier work
[2] = system: AP-1 site in the presence of ERα; settings: cited from earlier work
[3] = Single rising oral dose study in healthy postmenopausal volunteers; assay type: in vivo, human
Procedure: To determine the bioavailability and elimination half-life of estetrol after oral dosing in humans a single rising dosing study was performed in healthy postmenopausal volunteers. Volunteers (n=6) were randomly assigned to 0.1, 1 or 10 mg estetrol and blood samples (18 per volunteer) were obtained over a period of 72 hours. After thawing the plasma samples, liquid-liquid extraction (hexane and diethyl ether) was employed to prepare the estetrol-containing plasma samples for HPLC analysis (Perkin is Elmer 200) and tandem mass spectrometry using a PE Sciex 4000 tandem mass spectrometer and APCI interface. With each sample batch, a calibration curve with 6 calibrators was recorded.

human ERα = human ERα (Homo sapiens (Human), UniProt P03372); assay: Competitive steroid binding assay, ERα
[4] = system: pre-existing DMBA-induced mammary tumours; assay: DMBA-induced tumour model in rats, therapeutic design, pre-existing tumours (Example 5); assay type: in vivo, rat
Procedure: As set forth in example 3, female Sprague-Dawley rats were given 16 mg DMBA at the age of 50 days. Mammary tumour development was allowed to proceed until week 8 after DMBA treatment. Animals were subsequently allocated to one of six groups, receiving 4 weeks daily oral treatment with placebo, tamoxifen or estetrol as follows: • Group 1 animals received placebo treatment with a single daily dose of 3.0 ml/kg vehicle (20% wt/vol solution of hydroxypropyl-beta-cyclodextrin in water); • Group 2 animals were surgically castrated and received placebo treatment with 3.0 ml/kg/day vehicle; • Group 3 animals received tamoxifen at a dose of 1 mg/kg; • Group 4 animals received estetrol at a dose of 1.0 mg/kg; • Group 5 animals received estetrol at a dose of 3.0 mg/kg; • Group 6 animals received estetrol at a dose of 10.0 mg/kg. […] During therapy, the progression or disappearance of palpable mammary tumours and the size of the tumours were determined weekly. At necropsy, tumours were counted, measured and the change from baseline at the start of treatment was calculated.

human ERβ = human ERβ (Homo sapiens (Human), UniProt Q92731); assay: Competitive steroid binding assay, ERβ
[5] = Previous studies: agonistic models of bone resorption, hot flushing and vaginal cornification; assay type: in vivo; settings: vaginal cornification
Excerpt: Eighty-four female Sprague-Dawley rats (Harlan, The Netherlands) were group housed, maintained in a 12-hr light/dark environment, and fed a Soya Free Diet (SDS England) and water ad libitum. Animals were weighed on a weekly basis.

[6] = system: DMBA-induced mammary tumours; assay: DMBA-induced tumour model in rats, prevention (Example 3); assay type: in vivo, rat; settings: 8 weeks
[7] = system: DMBA-induced mammary tumours; assay: Second DMBA trial in rats, dose-response prevention study (Example 4); assay type: in vivo, rat; settings: 8 weeks
Excerpt: Estetrol and tamoxifen were subsequently tested in a second DMBA trial in rats to evaluate the dose-response relationships in preventing rats from developing mammary tumours. The experimental procedure as set forth in example 3 was used as a prevention study to treat the animals (12 animals per group) for 8 consecutive weeks after tumour induction with oral dosages of either estetrol or tamoxifen. DMBA-exposed rats were randomly assigned to treatment groups, receiving oral treatment as follows: • Group 1 animals received placebo oral treatment in the form of a single daily dose of 3.0 ml/kg vehicle (20% wt/vol solution of hydroxypropyl-beta-cyclodextrin in water); • Group 2 animals received tamoxifen orally at a single daily dose of 1 mg/kg; • Group 3 animals received tamoxifen orally at a single daily dose of 2 mg/kg; • Group 4 animals received tamoxifen orally at a single daily dose of 3 mg/kg; • Group 5 animals received estetrol orally at a single daily dose of 0.5 mg/kg; • Group 6 animals received estetrol orally at a single daily dose of 1.0 mg/kg; • Group 7 animals received estetrol orally at a single daily dose of 1.5 mg/kg; • Group 8 animals received estetrol orally at a single daily dose of 2.0 mg/kg; • Group 9 animals received estetrol orally at a single daily dose of 2.5 mg/kg; and • Group 10 animals received estetrol orally at a single daily dose of 3.0 mg/kg
During the treatment period of 8 weeks, the emergence of palpable tumours and number of tumours were determined weekly. The number of mammary tumours at necropsy is depicted in FIG. 2.

[8] = system: cultured endothelial cells of human umbilical cord veins; settings: cited from earlier work

human ERα, sequence (P03372 whole entry): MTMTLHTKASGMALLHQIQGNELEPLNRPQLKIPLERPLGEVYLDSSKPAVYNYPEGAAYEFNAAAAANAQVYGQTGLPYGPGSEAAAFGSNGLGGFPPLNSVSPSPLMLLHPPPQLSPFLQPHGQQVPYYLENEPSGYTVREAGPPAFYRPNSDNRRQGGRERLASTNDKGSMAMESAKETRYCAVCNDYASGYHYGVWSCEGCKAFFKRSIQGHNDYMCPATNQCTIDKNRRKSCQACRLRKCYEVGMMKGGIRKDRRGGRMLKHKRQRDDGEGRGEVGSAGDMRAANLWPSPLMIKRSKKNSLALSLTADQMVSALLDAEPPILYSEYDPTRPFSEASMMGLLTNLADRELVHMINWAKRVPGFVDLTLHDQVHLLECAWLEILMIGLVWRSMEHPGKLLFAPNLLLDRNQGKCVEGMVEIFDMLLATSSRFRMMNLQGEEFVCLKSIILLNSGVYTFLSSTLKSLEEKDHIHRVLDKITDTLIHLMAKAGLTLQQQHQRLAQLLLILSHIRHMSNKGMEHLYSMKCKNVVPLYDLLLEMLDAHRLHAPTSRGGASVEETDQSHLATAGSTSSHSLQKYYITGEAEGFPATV
human ERβ, sequence (Q92731 whole entry): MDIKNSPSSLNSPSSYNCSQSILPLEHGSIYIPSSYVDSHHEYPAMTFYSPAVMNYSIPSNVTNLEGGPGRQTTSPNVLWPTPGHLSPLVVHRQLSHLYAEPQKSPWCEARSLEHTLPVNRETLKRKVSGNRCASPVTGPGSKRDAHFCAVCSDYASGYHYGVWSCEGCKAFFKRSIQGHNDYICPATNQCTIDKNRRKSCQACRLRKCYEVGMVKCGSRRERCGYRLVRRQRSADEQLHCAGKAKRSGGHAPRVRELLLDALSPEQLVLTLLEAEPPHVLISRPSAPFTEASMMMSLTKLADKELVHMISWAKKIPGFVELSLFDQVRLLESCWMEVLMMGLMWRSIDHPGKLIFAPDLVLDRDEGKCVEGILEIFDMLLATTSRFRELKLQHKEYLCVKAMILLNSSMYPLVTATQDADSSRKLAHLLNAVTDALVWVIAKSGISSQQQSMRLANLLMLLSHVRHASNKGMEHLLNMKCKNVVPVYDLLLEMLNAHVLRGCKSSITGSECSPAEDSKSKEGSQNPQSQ

SMILES: C[C@]12CC[C@@H]3c4ccc(O)cc4CC[C@H]3[C@@H]1CC[C@@H]2O [E2, 17β-estradiol]
Effect on AP-1 site [1]: inhibits
Effect on AP-1 site [2]: activates

half-life ([3]; female, human, plasma, po, oral dosing, human postmenopausal subjects, read-out: Elimination half-life): > 1200 min
AUC values, dose-linearity ([3]; oral 0.1, 1, 10 mg, plasma): good dose-linearity
Oral absorption ([3]; over the entire dose range 0.1-10 mg oral): well absorbed
Ki (human ERα): 4.9 nM
Relative ERα/ERβ preference (human ERα; preference for binding to ERα protein versus ERβ protein): 400%
Ki (human ERβ): 19 nM
SMILES: C[C@]12CC[C@@H]3c4ccc(O)cc4CC[C@H]3[C@@H]1[C@@H](O)[C@@H](O)[C@@H]2O [E4, 1,3,5 (10)-estratrien-3,15α,16α,17β-tetrol]
Tolerability ([3]; oral dose increased from 0.1 to 1 and 10 mg, postmenopausal volunteers): Good tolerability
Tumour number at necropsy ([4]; estetrol 1 mg/kg/day orally 4 weeks, n=9, 16 at start of treatment): 23
Tumour number at necropsy ([4]; estetrol 3 mg/kg/day orally 4 weeks, n=9, 16 at start of treatment): 15
Tumour number at necropsy ([4]; estetrol 10 mg/kg/day orally 4 weeks, n=10, 18 at start of treatment): 7
Tumour size, percentage change from baseline, net group effect ([4]; estetrol 1, 3, 10 mg/kg/day orally 4 weeks): dose dependent pronounced tumour size reduction
Efficacy, net disappearance of mammary tumours ([4]; estetrol orally 4 weeks, started 8 weeks after DMBA): comparable to ovariectomy
In vivo estrogenicity, relative potency ([5]; 0.125 mg/kg/day EE vs […] E4, hot flushing): equipotency
In vivo estrogenicity, relative potency ([5]; […] EE vs 0.5 mg/kg/day E4, hot flushing): equipotency
Efficacy in preventing growth of DMBA-induced tumours relative to tamoxifen ([6]; E4 […] vs tamoxifen 3 mg/kg/day orally): as effective as tamoxifen
Mammary tumour formation ([7]; estetrol 0.5-3.0 mg/kg/day orally): dose-dependent inhibition of mammary tumour formation
Protection from developing tumours ([7]; estetrol 2.5 and 3.0 mg/kg/day orally): completely protected rats from developing tumours
Effect on proliferation of vascular endothelial cells [8]: No significant effect

SMILES: C[C@]12CC[C@@H]3c4ccc(O)cc4C[C@@H](CCCCCCCCC[S+]([O-])CCCC(F)(F)C(F)(F)F)[C@H]3[C@@H]1CC[C@@H]2O (stereo partly shown) [ICI-182,780]
Effect on AP-1 site [1]: stimulate
Effect on AP-1 site [2]: inhibit

SMILES: O=C(c1ccc(OCCN2CCCCC2)cc1)c1c(-c2ccc(O)cc2)sc2cc(O)ccc12 [raloxifene]
Effect on AP-1 site [1]: stimulate
Effect on AP-1 site [2]: inhibit

SMILES: CC/C(=C(\c1ccccc1)c1ccc(OCCN(C)C)cc1)c1ccccc1 [tamoxifen, reference compound]
Effect on AP-1 site [1]: stimulate
Effect on AP-1 site [2]: inhibit
Tumour size, percentage change from baseline, net group effect ([4]; tamoxifen 1 mg/kg/day orally 4 weeks): increase in tumour size as net group effect
Efficacy against further development and progression of mammary tumours ([4]; tamoxifen 1 mg/kg/day orally 4 weeks, started 8 weeks after DMBA): ineffective
Tumour number at necropsy ([4]; tamoxifen 1 mg/kg/day orally 4 weeks, n=8, 15 at start of treatment): 19
Development of mammary tumours ([6]; tamoxifen 3 mg/kg/day orally): inhibiting the development of mammary tumours
Palpable tumours developed ([7]; tamoxifen 1, 2 and 3 mg/kg/day orally): In none of the tamoxifen groups (1, 2, and 3 mg/kg/day) palpable tumours developed
